Reference: paper PMC5267425, “Identification of small molecule modulators of HIV-1 Tat and Rev protein accumulation” (Retrovirology, 2017)
“And” between values parts separate entries of the source, which are not always exact repeats. Equal values may be shown once.

Test system: cellular gene expression in HeLa rtTA HIV∆Mls cells

Cc1cc(NCc2cccnc2)n2ncc(-c3ccc(Cl)cc3)c2n1 [Compound 791, 3-(4-chlorophenyl)-5-methyl-N-(3-pyridinylmethyl)pyrazolo[1,5-a]pyrimidin-7-amine]
LYSMD1 expression level (gene LYSMD1, 9147791-treated cells, two replicates): 6.83 and 7.15
MAP3K12 expression level (gene MAP3K12, 9147791-treated cells, two replicates): 10.58 and 11.11
MBD6 expression level (gene MBD6, 9147791-treated cells, two replicates): 19.55 and 19.21
MBLAC2 expression level (gene MBLAC2, 9147791-treated cells, two replicates): 3.53 and 3.60
MED1 expression level (gene MED1, 9147791-treated cells, two replicates): 16.72 and 17.76
MKKS expression level (gene MKKS, 9147791-treated cells, two replicates): 33.76 and 31.64
MLKL expression level (gene MLKL, 9147791-treated cells, two replicates): 8.65 and 8.80
MORC2 expression level (gene MORC2, 9147791-treated cells, two replicates): 14.30 and 13.93
MRPL1 expression level (gene MRPL1, 9147791-treated cells, two replicates): 13.37 and 12.84
MRPS16 expression level (gene MRPS16, 9147791-treated cells, two replicates): 56.39 and 57.78
MRPS18B expression level (gene MRPS18B, 9147791-treated cells, two replicates): 84.33 and 82.56
MSL1 expression level (gene MSL1, 9147791-treated cells, two replicates): 19.35 and 20.08
MTIF2 expression level (gene MTIF2, 9147791-treated cells, two replicates): 23.18 and 24.37
MXI1 expression level (gene MXI1, 9147791-treated cells, two replicates): 11.96 and 11.72
MYSM1 expression level (gene MYSM1, 9147791-treated cells, two replicates): 6.50 and 6.96
NADK expression level (gene NADK, 9147791-treated cells, two replicates): 51.36 and 49.09
NFX1 expression level (gene NFX1, 9147791-treated cells, two replicates): 16.88 and 17.47
NHLRC2 expression level (gene NHLRC2, 9147791-treated cells, two replicates): 5.90 and 6.13
NR2C1 expression level (gene NR2C1, 9147791-treated cells, two replicates): 12.80 and 13.28
NSMAF expression level (gene NSMAF, 9147791-treated cells, two replicates): 20.81 and 21.54
NT5DC3 expression level (gene NT5DC3, 9147791-treated cells, two replicates): 2.73 and 2.69
NUFIP2 expression level (gene NUFIP2, 9147791-treated cells, two replicates): 18.50 and 18.17
OSMR expression level (gene OSMR, 9147791-treated cells, two replicates): 33.63 and 36.47
OTUD6B expression level (gene OTUD6B, 9147791-treated cells, two replicates): 9.61 and 9.84
PATL1 expression level (gene PATL1, 9147791-treated cells, two replicates): 30.78 and 31.35
PEX19 expression level (gene PEX19, 9147791-treated cells, two replicates): 25.90 and 26.36
PHF1 expression level (gene PHF1, 9147791-treated cells, two replicates): 27.67 and 28.09
PIP4K2C expression level (gene PIP4K2C, 9147791-treated cells, two replicates): 17.91 and 18.93
PLD3 expression level (gene PLD3, 9147791-treated cells, two replicates): 114.37 and 115.61
PLD6 expression level (gene PLD6, 9147791-treated cells, two replicates): 4.96 and 5.07
PLEKHG4 expression level (gene PLEKHG4, 9147791-treated cells, two replicates): 9.09 and 8.55
PLRG1 expression level (gene PLRG1, 9147791-treated cells, two replicates): 18.77 and 17.99
PNPO expression level (gene PNPO, 9147791-treated cells, two replicates): 12.32 and 11.96
POLR1B expression level (gene POLR1B, 9147791-treated cells, two replicates): 13.48 and 13.61
PORCN expression level (gene PORCN, 9147791-treated cells, two replicates): 8.43 and 8.53
PPIE expression level (gene PPIE, 9147791-treated cells, two replicates): 36.69 and 37.52
PPPDE1 expression level (gene PPPDE1, 9147791-treated cells, two replicates): 25.65 and 26.33
PPPDE2 expression level (gene PPPDE2, 9147791-treated cells, two replicates): 24.63 and 25.91
PRDX5 expression level (gene PRDX5, 9147791-treated cells, two replicates): 527.71 and 539.87
PRKAB1 expression level (gene PRKAB1, 9147791-treated cells, two replicates): 9.24 and 9.53
PRKAB2 expression level (gene PRKAB2, 9147791-treated cells, two replicates): 9.63 and 9.56
PRKAG2 expression level (gene PRKAG2, 9147791-treated cells, two replicates): 4.40 and 4.65
PRPF38B expression level (gene PRPF38B, 9147791-treated cells, two replicates): 24.17 and 23.91
RAD23A expression level (gene RAD23A, 9147791-treated cells, two replicates): 139.22 and 133.17
RAD51C expression level (gene RAD51C, 9147791-treated cells, two replicates): 25.11 and 27.22
RBM18 expression level (gene RBM18, 9147791-treated cells, two replicates): 22.42 and 23.14
RDH14 expression level (gene RDH14, 9147791-treated cells, two replicates): 13.62 and 14.25
REPS1 expression level (gene REPS1, 9147791-treated cells, two replicates): 11.08 and 11.40
RETSAT expression level (gene RETSAT, 9147791-treated cells, two replicates): 39.84 and 41.20
RFNG expression level (gene RFNG, 9147791-treated cells, two replicates): 19.96 and 19.40
RILPL1 expression level (gene RILPL1, 9147791-treated cells, two replicates): 8.85 and 9.19
RIPK2 expression level (gene RIPK2, 9147791-treated cells, two replicates): 9.51 and 9.78
RNF135 expression level (gene RNF135, 9147791-treated cells, two replicates): 6.73 and 6.55
RNF139 expression level (gene RNF139, 9147791-treated cells, two replicates): 14.33 and 14.56
RNF146 expression level (gene RNF146, 9147791-treated cells, two replicates): 8.67 and 9.36
RNF212 expression level (gene RNF212, 9147791-treated cells, two replicates): 23.40 and 24.53
RPRD1A expression level (gene RPRD1A, 9147791-treated cells, two replicates): 17.67 and 18.23
RPUSD3 expression level (gene RPUSD3, 9147791-treated cells, two replicates): 51.54 and 51.13
RTTN expression level (gene RTTN, 9147791-treated cells, two replicates): 5.05 and 5.18
RUNDC1 expression level (gene RUNDC1, 9147791-treated cells, two replicates): 7.46 and 7.03
SDCCAG3 expression level (gene SDCCAG3, 9147791-treated cells, two replicates): 69.16 and 66.70
SENP1 expression level (gene SENP1, 9147791-treated cells, two replicates): 10.13 and 10.39
SENP5 expression level (gene SENP5, 9147791-treated cells, two replicates): 9.14 and 9.80
SIKE1 expression level (gene SIKE1, 9147791-treated cells, two replicates): 10.16 and 10.46
SLC26A11 expression level (gene SLC26A11, 9147791-treated cells, two replicates): 7.10 and 7.46
SLC35B3 expression level (gene SLC35B3, 9147791-treated cells, two replicates): 9.59 and 9.09
SLC38A6 expression level (gene SLC38A6, 9147791-treated cells, two replicates): 8.14 and 8.35
SLC39A6 expression level (gene SLC39A6, 9147791-treated cells, two replicates): 55.62 and 53.39
SMEK2 expression level (gene SMEK2, 9147791-treated cells, two replicates): 22.28 and 23.17
SQSTM1 expression level (gene SQSTM1, 9147791-treated cells, two replicates): 402.87 and 398.40
ST6GALNAC4 expression level (gene ST6GALNAC4, 9147791-treated cells, two replicates): 39.60 and 40.55
ST7L expression level (gene ST7L, 9147791-treated cells, two replicates): 3.77 and 3.85
STAMBP expression level (gene STAMBP, 9147791-treated cells, two replicates): 26.17 and 25.95
STK24 expression level (gene STK24, 9147791-treated cells, two replicates): 98.53 and 99.63
STK36 expression level (gene STK36, 9147791-treated cells, two replicates): 5.44 and 5.78
STK40 expression level (gene STK40, 9147791-treated cells, two replicates): 6.18 and 6.16
STX4 expression level (gene STX4, 9147791-treated cells, two replicates): 45.64 and 43.00
TBCCD1 expression level (gene TBCCD1, 9147791-treated cells, two replicates): 7.66 and 8.12
TGDS expression level (gene TGDS, 9147791-treated cells, two replicates): 10.85 and 10.65
TIGD2 expression level (gene TIGD2, 9147791-treated cells, two replicates): 10.77 and 11.51
TMEM33 expression level (gene TMEM33, 9147791-treated cells, two replicates): 13.53 and 12.82
TMEM68 expression level (gene TMEM68, 9147791-treated cells, two replicates): 5.74 and 5.79
TMEM120B expression level (gene TMEM120B, 9147791-treated cells, two replicates): 7.48 and 7.87
TMEM126B expression level (gene TMEM126B, 9147791-treated cells, two replicates): 51.64 and 47.99
TMEM134 expression level (gene TMEM134, 9147791-treated cells, two replicates): 16.44 and 17.07
TMEM167B expression level (gene TMEM167B, 9147791-treated cells, two replicates): 13.61 and 13.31
TRIM38 expression level (gene TRIM38, 9147791-treated cells, two replicates): 6.07 and 6.47
TRMT2A expression level (gene TRMT2A, 9147791-treated cells, two replicates): 11.24 and 11.68
TRNT1 expression level (gene TRNT1, 9147791-treated cells, two replicates): 14.44 and 15.17
TTC9C expression level (gene TTC9C, 9147791-treated cells, two replicates): 44.37 and 45.86
USP3 expression level (gene USP3, 9147791-treated cells, two replicates): 15.95 and 16.26
USP45 expression level (gene USP45, 9147791-treated cells, two replicates): 4.03 and 4.15
VHL expression level (gene VHL, 9147791-treated cells, two replicates): 23.74 and 22.96
WDR73 expression level (gene WDR73, 9147791-treated cells, two replicates): 10.95 and 11.17
XPO5 expression level (gene XPO5, 9147791-treated cells, two replicates): 32.34 and 33.37
ZBED5 expression level (gene ZBED5, 9147791-treated cells, two replicates): 26.69 and 27.18
ZBTB26 expression level (gene ZBTB26, 9147791-treated cells, two replicates): 10.25 and 9.99
ZBTB34 expression level (gene ZBTB34, 9147791-treated cells, two replicates): 4.78 and 4.42
ZCCHC4 expression level (gene ZCCHC4, 9147791-treated cells, two replicates): 6.80 and 6.69
ZCCHC8 expression level (gene ZCCHC8, 9147791-treated cells, two replicates): 17.17 and 17.82
ZCCHC9 expression level (gene ZCCHC9, 9147791-treated cells, two replicates): 6.71 and 6.52
ZFP30 expression level (gene ZFP30, 9147791-treated cells, two replicates): 3.88 and 3.75
ZFP36L2 expression level (gene ZFP36L2, 9147791-treated cells, two replicates): 6.55 and 6.96
ZFP64 expression level (gene ZFP64, 9147791-treated cells, two replicates): 11.62 and 11.15
ZFYVE27 expression level (gene ZFYVE27, 9147791-treated cells, two replicates): 15.03 and 14.85
ZNF12 expression level (gene ZNF12, 9147791-treated cells, two replicates): 10.78 and 10.46
ZNF91 expression level (gene ZNF91, 9147791-treated cells, two replicates): 4.92 and 4.68
ZNF133 expression level (gene ZNF133, 9147791-treated cells, two replicates): 7.16 and 7.05
ZNF184 expression level (gene ZNF184, 9147791-treated cells, two replicates): 6.52 and 6.31
ZNF193 expression level (gene ZNF193, 9147791-treated cells, two replicates): 10.85
ZNF195 expression level (gene ZNF195, 9147791-treated cells, two replicates): 11.04 and 10.45
ZNF319 expression level (gene ZNF319, 9147791-treated cells, two replicates): 3.69 and 3.71
ZNF320 expression level (gene ZNF320, 9147791-treated cells, two replicates): 11.36 and 12.30
ZNF354A expression level (gene ZNF354A, 9147791-treated cells, two replicates): 9.92 and 9.13
ZNF445 expression level (gene ZNF445, 9147791-treated cells, two replicates): 5.75 and 5.83
ZNF566 expression level (gene ZNF566, 9147791-treated cells, two replicates): 3.15 and 2.91
ZNF619 expression level (gene ZNF619, 9147791-treated cells, two replicates): 2.16 and 1.99
ZNF664 expression level (gene ZNF664, 9147791-treated cells, two replicates): 57.01 and 56.94
ZNF700 expression level (gene ZNF700, 9147791-treated cells, two replicates): 10.30 and 10.08
ZNF706 expression level (gene ZNF706, 9147791-treated cells, two replicates): 34.34 and 36.65
ZNF764 expression level (gene ZNF764, 9147791-treated cells, two replicates): 5.35 and 5.20
ZNF780B expression level (gene ZNF780B, 9147791-treated cells, two replicates): 4.74 and 4.46
ZNF800 expression level (gene ZNF800, 9147791-treated cells, two replicates): 6.37 and 6.62
ZRSR2 expression level (gene ZRSR2, 9147791-treated cells, two replicates): 34.69 and 32.80
ZSWIM7 expression level (gene ZSWIM7, 9147791-treated cells, two replicates): 4.48 and 4.71
genes with changes of <fivefold in expression (of ~10,000 genes detected): 85
genes with changes of <tenfold in expression (of ~10,000 genes detected): 4
